Data as given in US10065957B2, “Beta-lactamase inhibitors” (Novartis AG, priority 2016, dated 2018).

Legend:
Format in all cases: cell-based
[1] = test system: E. coli (AmpC); assay: microbe, parasite or virus in culture; conditions: for MIC of aztreonam with beta-lactamase inhibitor: AZ + BLI at 2 μg/mL; for Activity of Beta-Lactam 5 with beta-lactamase inhibitor: Beta-Lactam 5 + BLI at 2 μg/mL; for MIC of ceftazidime with beta-lactamase inhibitor: Ceft + BLI at 2 μg/mL; for MIC of meropenem with beta-lactamase inhibitor: Mero + BLI at 2 μg/mL
Method: (§1) MICs were determined by the broth microdilution method in accordance with Clinical and Laboratories Institute (CLSI) guidelines. In brief, fresh overnight bacterial cultures were suspended in sterile saline, and adjusted to a 0.5 McFarland turbidity standard. Bacterial suspensions were then diluted in cation adjusted Mueller-Hinton Broth (MHB II; BBL) to yield a final inoculum of approximately 5×10^5 colony-forming units (CFU)/mL. A master plate of antibiotics was prepared at a concentration equivalent to hundred-fold the highest desired final concentration in 100% dimethyl sulfoxide (DMSO). The master antibiotic plate was then diluted by serial twofold dilution with a multichannel pipette. The resulting dilution series of compounds were diluted 1:10 with sterile water or a solution of beta-lactamase inhibitor prepared at a concentration equivalent to eleven-fold the desired final concentration in deionized water leading to a 10% DMSO final concentration. A volume of 10 μL of the drug dilution series was transferred to 96-well assay plates. Assay plates were inoculated with 90 μL of bacterial suspensions and incubated at 35° C. for 20 hrs. The assay plates were read using a microtiter plate reader (Molecular Devices) at 600 nm as well as by visual observation with a reading mirror. The lowest concentration of the compound that prevented visible growth was recorded as the MIC. Performance of the assay was monitored by testing aztreonam against laboratory quality control strains in accordance with guidelines of the CLSI.
(§2) Synergy or potentiation of beta-lactam antibiotics through inhibition of Q-lactamases was assessed against an isogenic panel of E. coli strains, each expressing a unique beta-lactamase, and against clinical strains.
The gene encoding AmpC was PCR amplified from the genome of strain P. aeruginosa PAO1 (NB52019) (GenBank ID U5R279) using primer pair E252 (gccCTCGAGggcgaggccccggcggatcgc) (SEQ ID NO: 17) and E253 (tgaGAATTCtcagcgcttcagcggcacct) (SEQ ID NO: 18).
The PCR products were then digested with XhoI and EcoRI and ligated into similarly digested plasmid pAH63-pstS(BlaP). Plasmid pAH63-pstS(BlaP) is a derivative of plasmid pAH63 (J Bacteriol: 183(21): 6384-6393) made by cloning the TEM-1 (bla) promoter and signal peptide encoding region from plasmid pBAD (J Bacteriol. 1995 July 177(14):4121-30) into plasmid pAH63. This fragment was PCR amplified from pBAD using primer pair E192 (ttcaCTGCAGtgaacgttgcgaagcaacggC) (SEQ ID NO:19) and E194 (TCGAggatcctcgagagcaaaaacaggaaggcaaaatgccg) (SEQ ID NO:20), digested with PstI and BamHI and inserted into similarly digested plasmid pAH63. Therefore, expression of beta-lactamases from pAH63-pstS(BlaP) based constructs is constitutive and the signal sequence is provided to direct these proteins to the periplasm. Plasmid pAH63 based vectors are used for insertion into the genome in single copy, however, to provide higher expression levels to allow more sensitive detection of the susceptibility of compounds to the expressed beta-lactamases, the expression inserts contained in these vectors were moved to the replicative multicopy vector pBAD-Kan (J Bacteriol. 1995 July 177(14):4121-30). To accomplish this, the inserts encompassing the beta-lactamase genes, with the associated TEM promoter and signal sequences, were PCR amplified from their corresponding vectors using primer E268 (ccgTCTAGAcggatggcctttttgcgtttc) (SEQ ID NO:21) and E202 (aatcGAATTCttactgaccattaacgcccaagc) (SEQ ID NO:22) for the KPC2 construct, E204 (aatcGAATTCttaacgctgccagtgctcaatc) (SEQ ID NO:23) for the SHV-12 construct and E203 (aatcGAATTCttacagaccgtcggtgacaatc) (SEQ ID NO:24) for the CTX-M-15 construct. These fragments were then digested with XbaI and EcoRI, and each was inserted into pBAD18-kan that had been digested with the same enzymes to generate multicopy vectors expressing KPC-2, SHV-12 and CTX-M-15, respectively. […]

[2] = test system: K. pneumoniae NB29323 (CTX-M-15, OXA-48, VEB-1); conditions: AZ + BLI at 2 μg/mL
Method: as §1, §2

[3] = test system: E. coli (TEM-10); assay: microbe, parasite or virus in culture; conditions: for MIC of aztreonam with beta-lactamase inhibitor: AZ + BLI at 2 μg/mL; for Activity of Beta-Lactam 5 with beta-lactamase inhibitor: Beta-Lactam 5 + BLI at 2 μg/mL; for MIC of ceftazidime with beta-lactamase inhibitor: Ceft + BLI at 2 μg/mL; for MIC of meropenem with beta-lactamase inhibitor: Mero + BLI at 2 μg/mL
Method: as §1, with “MIC.” for “MIC. Performance of the assay was monitored by testing aztreonam against laboratory quality control strains in accordance with guidelines of the CLSI.”
as §2
Construction of E. coli isogenic strains, NB27273-CDY0105 (OXA-18) and NB27273-CDY0048 (TEM-10). […] The gene encoding OXA-18 was then digested with XhoI and EcoRI and inserted into this vector, from which the gene for GIM-1 had been removed with XhoI and EcoRI.
From this template DNA, three fragments were generated by PCR using the following primer pairs;
This fragment was then digested with XbaI and EcoRI and inserted into pBAD-kan which was also cut with the same enzymes.
These final vectors for expression of OXA-18 and TEM-10 were transformed into BW25113 pspB to generate strains NB27273-CDY0105 (expressing OXA-18) and NB27273-CDY0048 (expressing TEM-10).

[4] = test system: K. pneumoniae NB29082 (KPC-2); assay: Potentiation of piperacillin in beta-lactam resistant clinical isolate; conditions: Pip + BLI at 2 μg/mL
Method: as §1, §2

[5] = test system: Enterobacter cloacae NB25055 (CMY-2); assay: as above; conditions: Pip + BLI at 2 μg/mL
Method: as §1, §2

[6] = test system: S. aureus NB01437 (BLA+); assay: as above; conditions: Pip + BLI at 2 μg/mL
Method: as §1, §2

[7] = test system: E. coli ATCC 25922, K. pneumoniae ATCC 43816, P. aeruginosa ATCC 27853; assay: Direct antibacterial activity of BLIs alone, summary of Table A; conditions: BLI alone, in words
Method: as §1, with “A volume of 10 μL of the drug dilution series was transferred to 96-well assay plates. Assay plates were inoculated with 90 μL of bacterial suspensions and incubated at 35° C. for 20 hrs.” left out

`O=C(NC1CCNCC1)[C@@H]1CC[C@@H]2CN1C(=O)N2OS(=O)(=O)O` [Relebactam] was tested, and the “MIC of aztreonam with beta-lactamase inhibitor” value [1] was 0.125 µg/mL, the “Activity of Beta-Lactam 5 with beta-lactamase inhibitor” value [1] was 0.25 µg/mL and the “MIC of ceftazidime with beta-lactamase inhibitor” value [1] was 0.125 µg/mL. For the same compound, the “MIC of meropenem with beta-lactamase inhibitor” value [1] was no more than 0.06 µg/mL, the “Activity of aztreonam with beta-lactamase inhibitor” value [2] was 8 µg/mL and the “MIC of aztreonam with beta-lactamase inhibitor” value [3] was 2 µg/mL. The “Activity of Beta-Lactam 5 with beta-lactamase inhibitor” value [3] was 0.25 µg/mL, the “MIC of ceftazidime with beta-lactamase inhibitor” value [3] was 8 µg/mL and the “MIC of meropenem with beta-lactamase inhibitor” value [3] was no more than 0.06 µg/mL.
For `O=C1NC[C@@H]2C[C@@H]3CN(C(=O)N3OS(=O)(=O)[O-])[C@H]12.[Na+]` [Example 1, Sodium (4R,5aS,8aS)-2,8-dioxohexahydro-2H-1,4-methanopyrrolo[3,4-d][1,3]diazepin-3(4H)-yl sulfate], the “Activity of piperacillin with beta-lactamase inhibitor” value [4] was 8 µg/mL, the “Activity of piperacillin with beta-lactamase inhibitor” value [5] was 4 µg/mL and the “Activity of piperacillin with beta-lactamase inhibitor” value [6] was 1 µg/mL. For the same compound, the “MIC of aztreonam with beta-lactamase inhibitor” value [1] was 0.125 µg/mL, the “Activity of Beta-Lactam 5 with beta-lactamase inhibitor” value [1] was 0.25 µg/mL and the “MIC of ceftazidime with beta-lactamase inhibitor” value [1] was 0.25 µg/mL. For the same compound, the “MIC of meropenem with beta-lactamase inhibitor” value [1] was no more than 0.06 µg/mL, the “Activity of aztreonam with beta-lactamase inhibitor” value [2] was 0.25 µg/mL and the direct antibacterial activity [7] was “does not exhibit much direct antibiotic activity”. The “MIC of aztreonam with beta-lactamase inhibitor” value [3] was 0.125 µg/mL, the “Activity of Beta-Lactam 5 with beta-lactamase inhibitor” value [3] was 0.125 µg/mL and the “MIC of ceftazidime with beta-lactamase inhibitor” value [3] was 0.25 µg/mL. For the same compound, the “MIC of meropenem with beta-lactamase inhibitor” value [3] was no more than 0.06 µg/mL.
`NC(=O)[C@@H]1CC[C@@H]2CN1C(=O)N2OS(=O)(=O)O` [Avibactam] was tested, and the “MIC of aztreonam with beta-lactamase inhibitor” value [1] was no more than 0.06 µg/mL, the “Activity of Beta-Lactam 5 with beta-lactamase inhibitor” value [1] was 0.125 µg/mL and the “MIC of ceftazidime with beta-lactamase inhibitor” value [1] was 0.125 µg/mL. For the same compound, the “MIC of meropenem with beta-lactamase inhibitor” value [1] was no more than 0.06 µg/mL, the “Activity of aztreonam with beta-lactamase inhibitor” value [2] was 2 µg/mL and the direct antibacterial activity [7] was “exhibit direct antibacterial activity”. The “MIC of aztreonam with beta-lactamase inhibitor” value [3] was 0.25 µg/mL, the “Activity of Beta-Lactam 5 with beta-lactamase inhibitor” value [3] was 0.125 µg/mL and the “MIC of ceftazidime with beta-lactamase inhibitor” value [3] was 1 µg/mL. For the same compound, the “MIC of meropenem with beta-lactamase inhibitor” value [3] was no more than 0.06 µg/mL.
